Laboratory results as given in patent US6875761B2 (Eisai Co., Ltd., priority 1997, dated 2005).
Where a name gives a salt, the structure may show the parent alone.

Key:
[1] = biological target: T1, serotonin 1A receptor (Rattus norvegicus, UniProt P19327); assay: Binding test on [3H] 8-hydroxy-dipropylaminotetralin, hippocampus receptor fraction; set-up: species or system SD rats; conditions: rat hippocampus receptor fraction, 0.5 nM [3H] 8-OH-DPAT, room temperature 30 min; read-out: 5HT1
T1 construct: To the receptor fraction of the hippocampus were added a test compound and 0.5 nM of [^3H]; 8-hydroxy-dipropylaminotetralin; from tissue; host or cells: rat hippocampus membrane fraction
T1 sequence (P19327 1-422): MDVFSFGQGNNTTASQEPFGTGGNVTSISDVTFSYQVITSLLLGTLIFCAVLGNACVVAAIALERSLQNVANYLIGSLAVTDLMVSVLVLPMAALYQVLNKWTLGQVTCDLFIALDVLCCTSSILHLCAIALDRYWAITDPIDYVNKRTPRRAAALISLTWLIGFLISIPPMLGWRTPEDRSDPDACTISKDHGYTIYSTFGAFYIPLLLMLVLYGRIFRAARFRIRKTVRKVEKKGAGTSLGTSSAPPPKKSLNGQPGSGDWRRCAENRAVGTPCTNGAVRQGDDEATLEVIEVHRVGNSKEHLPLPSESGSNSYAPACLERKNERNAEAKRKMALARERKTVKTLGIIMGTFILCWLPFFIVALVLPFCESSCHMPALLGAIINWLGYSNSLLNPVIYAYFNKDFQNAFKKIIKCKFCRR

[2] = biological target: T2, serotonin 2 receptor (Rattus norvegicus, UniProt P14842); assay: Binding test on [3H] ketanserin, cerebral cortex receptor fraction; set-up: species or system SD rats; conditions: 0.3 nM [3H] ketanserin, 37° C. 15 min, read-out: 5HT2
T2 construct: To the receptor fraction of the cerebral cortex were added a test compound and 0.3 nM of [^3H] ketanserin; from tissue; host or cells: rat cerebral cortex membrane fraction

[3] = biological target: α1 adrenalin receptor; assay: Binding test on [3H] prazosin, cerebral cortex receptor fraction; set-up: species or system SD rats; conditions: rat cerebral cortex receptor fraction, about 0.2 nM [3H] prazosin, room temperature 60 min; read-out: α 1
Method: As radioisotope-labeled compounds, use was made of the following reagents (mfd. by NEN). • 3) [^3H] […] Prazosin.
Use was made of SD rats aged 6 to 8 weeks.
The rats were sacrificed by dcapitation to extirpate the cerebra.
Each mixture was homogenized by using a Teflon glass homogenizer and centrifuged as 1,000× g for 10 min. The supernatant thus obtained was further centrifuged at 20,000× g for 20 min. […] After centrifuging at 20,000× g for 20 min, the obtained precipitate was further suspended and centrifuged twice each in the same manner. […] This receptor fraction was stored at −80° C. until using.
IC50 was calculated by the probit method, while Ki was determined in accordance with the following formula: Ki=IC50(1+c/Kd) wherein c represents the concentration of the radioisotope-labeled compound, and Kd represents the dissociation constant of the radioisotope-labeled compound with respect to the receptor determined by Scatchard's analysis. (Binding test on [^3H] prazosin)
To the receptor fraction of the cerebral cortex were added a test compound and about 0.2 nM of [^3H] prazosin and the resultant mixture was incubated at room temperature for 60 min. Next, it was filtered through a glass filter with the use of a cell harvester. After washing the glass filter with 50 mM Tris hydrochloride (pH 7.4), the radioactivity of the receptor was measured with a liquid scintillation counter. The binding detected in the presence of 10 μM of phentolamine was referred to as the nonspecific binding.

T2 sequence (P14842 whole entry): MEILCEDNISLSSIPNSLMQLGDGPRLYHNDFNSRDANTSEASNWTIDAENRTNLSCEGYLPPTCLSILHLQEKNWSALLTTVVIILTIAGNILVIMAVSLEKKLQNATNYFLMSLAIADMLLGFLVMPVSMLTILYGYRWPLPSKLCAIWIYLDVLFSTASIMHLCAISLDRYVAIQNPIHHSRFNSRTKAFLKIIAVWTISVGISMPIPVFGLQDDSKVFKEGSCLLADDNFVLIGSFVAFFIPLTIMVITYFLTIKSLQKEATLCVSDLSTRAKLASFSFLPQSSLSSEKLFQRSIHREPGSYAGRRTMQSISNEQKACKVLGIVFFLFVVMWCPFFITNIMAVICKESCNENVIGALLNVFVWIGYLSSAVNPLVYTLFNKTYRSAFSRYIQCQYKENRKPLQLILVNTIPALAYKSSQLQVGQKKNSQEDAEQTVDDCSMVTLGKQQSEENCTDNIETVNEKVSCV

| SMILES | Ki [1] [nM] | Ki [2] [nM] | Ki [3] [nM] | melting point |
| --- | --- | --- | --- | --- |
| CCN1CCN(c2nc(-c3ccc(O)cc3)cc3ccccc23)CC1 [Example 7, 1-(4-ethylpiperazin-1-yl)-3-(4-hydroxyphenyl)isoquinoline] | 27.9 | 81.3 | 521 | 204 to 206 °C |
| CCN1CCN(c2nc(/C=C/c3ccccc3S(C)(=O)=O)cc3ccccc23)CC1.Cl [Example 202, 3-[(E)-2-(2-Methylsulfonylphenyl)Ethenyl]-1-(4-Ethylpiperazin-1-Yl)Isoquinoline Hydrochloride] | 14.6 | 2.22 | > 2000 | 146 to 149 °C |
| CCN1CCN(c2nc(-c3ccc(OCCCO)cc3)cc3ccccc23)CC1.Cl.Cl [Example 331, 1-(4-ethylpiperazin-1-yl)-3-[4-(3-hydroxypropoxy)phenyl]isoquinoline dihydrochloride] | 23.6 | 5.9 | 722 | 112 to 113 °C (dec.) |
| CCN1CCN(c2nc(-c3ccc(OCCC#N)cc3)cc3ccccc23)CC1 [Example 52, 3-[4-(2-Cyanoethoxy)Phenyl]-1-(4-Ethylpiperazin-1-Yl)Isoquinoline Hydrochloride] | 23.5 | 0.6 | 555 | – |
| CCN1CCN(c2nc(-c3ccc(OCCO)cc3)cc3ccccc23)CC1 [Example 36, 1-(4-ethylpiperazin-1-yl)-3-[4-(2-hydroxyethoxy)phenyl]isoquinoline dihydrochloride] | 18.8 | 3.9 | 1220 | – |
| CCN1CCN(c2nc(-c3ccccn3)cc3ccccc23)CC1 [Example 123, 1-(4-Ethylpiperazin-1-yl)-3-(2-Pyridyl)Isoquinoline Dihydrochloride] | 34 | 29.1 | 553 | – |
| CCN1CCN(c2nc(-c3ccc(CCC(C)(C)O)c(F)c3)cc3ccccc23)CC1 [Example 416, 1-(4-ethylpiperazin-1-yl)-3-[4-(3-hydroxy-3-methylbutyl)-3-fluorophenyl]isoquinoline] | 31.2 | 0.7 | 174 | – |
| CCN1CCN(c2nc(-c3ccc(CCCOC)nc3)cc3ccccc23)CC1 [Example 139, 1-(1-Ethylpiperazin-4-yl)-3-[2-(3-Methoxypropyl)Pyridin-5-yl]Isoquinoline Oxalate] | 2.7 | 5.1 | 374 | – |
| CCCC(=O)Nc1ccc(-c2cc3ccccc3c(N3CCN(CC)CC3)n2)cc1 [Example 70, 3-(4-Propylcarbonylaminophenyl]-1-(4-Ethylpiperazin-1-Yl)Isoquinoline Hydrochloride] | 23.3 | 5.5 | 1260 | – |
| CCCCS(=O)(=O)Nc1ccc(-c2cc3ccccc3c(N3CCN(CC)CC3)n2)cc1 [Example 73, 3-(4-Butylsulfonylaminophenyl)-1-(4-Ethylpiperazin-1-Yl)Isoquinoline Hydrochloride] | 13 | 3.3 | 699 | – |
| CCN1CCN(c2nc(-c3ccc(CCC(C)O)cc3)cc3ccoc23)CC1 (stereo not drawn) [Example 300, 7-(1-ethylpiperazin-4-yl)-5-[4-(3-hydroxybutyl)phenyl]furo[2,3-c]pyridine dihydrochloride] | 0.49 | 9.06 | > 2000 | – |
| CCN1CCN(c2nc(CCCCOCc3ccccc3)cc3ccccc23)CC1 [Example 1, 3-(4-benzyloxybutyl)-1-(4-ethylpiperazin-1-yl)isoquinoline Dihydrochloride] | 21.2 | 36.4 | > 2000 | – |
